According to patent US9181172B2, “Rhein conjugates, preparation method thereof and their uses in producing medicines for treating diabetic nephrosis, intestinal adhesion and osteoarthritis” (priority 2005, dated 2015):

Columns and labels:
diabetic rats = test: Diabetic nephrosis of obese diabetic rats (high-fat high-sugar diet plus STZ); assay type: in vivo; settings: for Urine protein / Kidney weight index (double kidney weight/body weight × 10^4) / Serum total cholesterol / Serum triacylglycerol / Steady blood sugar level / Steady insulin level / Weight / blood sugar: six months, ig 90 mg/kg
Experimental: Animal model of diabetic rats: after one month of high-fat high-sugar diet, the rats (about 180 g) were injected by sub-pathogenic dose (25 mg/kg) of streptozotocin (STZ) to induce the occurrence of diabetes. The model has the characteristics of moderate hyperglycemia, hyperlipidemia and insulin resistance as well as pathological changes of typical diabetic nephrosis.
• 1. Conventional feedstuff control group: distilled water. • 2. Diabetes model group: distilled water. • 3. Rhein lysine diabetes treatment group: a month after STZ injection, rhein lysine complex [prepared with distilled water, intragastric infusion for rats according to 90 mg/kg (0.209 mmol/kg) dose] was administered referred to treatment group 1. • 4. Rhein sodium diabetes treatment group: a month after STZ injection, rhein sodium [prepared with distilled water, intragastric infusion for rats, according to 65 mg/kg (0.212 mmol/kg) dose] was administered, referred to treatment group 2. • 5. Rhein lysine diabetes prevention group: one week after STZ injection, rhein lysine conjugates were administered [prepared with distilled water and intragastric infusion for rats, according to 90 mg/kg (0.209 mmol/kg) dose], referred to prevention group 1. • 6. Rhein sodium diabetes prevention group: one week after STZ injection, rhein sodium were administered [prepared with distilled water and intragastric infusion for rats, according to 65 mg/kg (0.212 mmol/kg ) dose], referred to prevention group 2.

obese hyperglycemia mice = test: Body weight and blood glucose of obese hyperglycemia mice; assay type: in vivo
Experimental: 9-week-old obese mice of hyperglycemia were randomly divided into: rhein sodium group, non-treatment group, rosiglitazone group, rhein lysine high-dose group and low-dose group, each group has 6 mice. Kunming mice of the same age were used as the control group, which were fed by conventional feedstuff with free food and water feeding. Rhein lysine conjugates [the dose is 180 mg/kg (0.418 mmol/kg) and 90 mg/kg (0.209 mmol/kg) for intragastric infusion, prepared with distilled water], dose of the rhein sodium group is 130 mg/kg (0.424 mmol/kg), the mixture was dissolved with distilled water, intragastric administration; rosiglitazone group (the dose is 4 mg/kg), the mixture was dissolved with distilled water, intragastric administration, and the rats of the other two groups were administered with the same volume of distilled water, once a day, 12 weeks of administration in succession. The animals' body weight and blood sugar were measured regularly, and statistical analysis was conducted.

[1] = test system: obese rats of high-fat and high-sugar diet; test: Body weight of obese rats of high-fat and high-sugar diet; assay type: in vivo
Source text: Group A: conventional diet, 4 weeks later, started to carry on intragastric administration, and the same volume of distilled water as the control, once daily, three weeks in succession.
Group B: high-fat high-sugar diet, 4 weeks later, started to carry on intragastric administration, and the same volume of distilled water as the model control, once daily, three weeks in succession.
Group C: high-fat high-sugar diet, 4 weeks later, started to carry on intragastric administration of rhein lysine conjugates [dose: 90 mg/kg (0.209 mmol/kg), prepared by distilled water], once daily, three weeks in succession.
Group D: high-fat high-sugar diet, 4 weeks later, started to carry on intragastric administration of rhein lysine conjugates [dose: 45 mg/kg (0.105 mmol/kg), prepared by distilled water], once daily, three weeks in succession.
Group E: high-fat high-sugar diet, 4 weeks later, started to carry on intragastric administration of rhein sodium [dose: 65 mg/kg (0.212 mmol/kg), prepared by distilled water], once daily, three weeks in succession.

rats = test: Intestinal adhesion in rats; assay type: in vivo; settings: 10 mg/kg once every two days, 7th day
Experimental: Rats were fasted for 12 h and models were built according to the methods in the literature [Xu Shuyun, Methodology in Pharmacological Experiment (the 3rd version): 1335]. The rats were randomly divided into five groups, namely, model control group, dexamethasone group, rhein sodium group, rhein glucosamine large dose group and low dose group. Each group included 12 rats. […] The rats of the model group were administered with the same volume of NS, while the rats of the positive control group were administered with dexamethasone, administered once every two days, dose: 10 mg/kg. The administration volume was the same as the treatment group. The rats were killed on the 7th day and carried on laparotomy. Adhesion degree was classified and scored respectively. The classification and score of the observed index-adhesion degree can refer to the five-grade classification method prepared by Nair, and determine the classification standard, see Schedule 13. Intestinal adhesion classification adopts Ridit analysis. The test results are as follows (Table 14): […]

mice [2] = test: Intestinal propulsion in mice; assay type: in vivo; settings: dosage 9 mg/kg, intravenous injection
Experimental: Fifty mice, male, weighting from 18 to 22 g, were randomly divided into five groups, namely, model control group, domperidone group, rhein sodium group, rhein glucosamine large dose group and low dose group.
Each group has 10 mice respectively. The mice were fasted, but water was not prohibited, and then administered with medicines by intravenous injection. After that, tests were carried on immediately according to the methods in the literature[Xu Shuyun, Methodology in Pharmacological Experiment (the 3rd version): 1313]. The intestinal propulsive rates were calculated, and t test was used for the intergroup comparison.

[3] = Comparison of metal salts or conjugates hydro-acupuncture (water-carrier) preparation: pH value and clarity; assay type: physicochemical; settings: 2.0 mg/ml in water, as dissolved
Experimental: Proper amount of different rhein or rhein-containing effective part metal salts or conjugates were put into a 10 ml volumetric flask, added with water, shaken and dissolved for constant volume, and then a water-carrier preparation was obtained. Rhein or rhein-containing effective part sodium salts or sylvan preparation are adjusted to the original pH with diluted hydrochloric acid and the results were shown in Table 4.

mice [4] = test: Immune function in mice (clearance index, phagocytic index); assay type: in vivo; settings: ig 20 mg/kg, 3 days
Experimental: Fifty Kunming mice, half male and half female, weighing 18-22 g each were selected and randomly divided into five groups, namely, model control group, cyclophosphamide group, rhein sodium group, rhein glucosamine large dose group and small dose group, 10 mice for each group. The mice were administered with medicines by intragastric administration, 0.2 ml/10 g body weight, once every day and administered for 3 days in succession. After the mice were administered with medicines, 30 minutes later, test was carried on according to the method in the literature [Xu Shuyun, Methodology in Pharmacological Experiment (the 3rd version): 934]. The […] and corrected phagocytic index α were calculated, and t-test was conducted for statistical analysis.

[5] = prevention group and treatment group, six months after administration
[6] = baseline of high-dose group, ig 180 mg/kg once a day
[7] = baseline of low-dose group, ig 90 mg/kg once a day
[8] = baseline of group given ig 4 mg/kg once a day

NCCCCC(N)C(=O)O.O=C(O)c1cc(O)c2c(c1)C(=O)c1cccc(O)c1C2=O [Rhein lysine conjugate, Rhein Lysine Conjugate]
kidney weight and kidney weight index compared with the model group (diabetic rats; [5]): significantly lower | serum cholesterol and triglyceride compared with the model group (diabetic rats; [5]): significantly lower | urine protein content compared with the model group (diabetic rats; [5]): significantly lower | blood sugar level compared with the model group (diabetic rats; prevention group, six months after administration): significantly lower | Urine protein (diabetic rats; preventive administration from one week after STZ): 10.23 ± 3.34 mg/24 h | Kidney weight index (double kidney weight/body weight × 10^4) (diabetic rats; preventive administration): 5.26 ± 0.74 | Serum total cholesterol (diabetic rats; preventive administration): 2.78 ± 0.21 mM | Serum triacylglycerol (diabetic rats; preventive administration): 1.56 ± 0.32 | Steady blood sugar level (diabetic rats; preventive administration): 6.2 ± 0.4 mmol/L | Steady insulin level (diabetic rats; preventive administration): 71.6 ± 3.5 uU/ml | Weight (diabetic rats; preventive administration): 248 ± 13 g | blood sugar (diabetic rats; preventive administration): 14.98 ± 5.9 mmol/L | Urine protein (diabetic rats; treatment from a month after STZ): 15.12 ± 5.68 mg/24 h | blood sugar level compared with the model group (diabetic rats; treatment group, six months after administration): no significant difference | Kidney weight index (double kidney weight/body weight × 10^4) (diabetic rats; treatment): 6.7 ± 0.78 | Serum total cholesterol (diabetic rats; treatment): 3.56 ± 0.71 mM | Serum triacylglycerol (diabetic rats; treatment): 1.63 ± 0.39 | Steady blood sugar level (diabetic rats; treatment): 5.6 ± 0.9 mmol/L | Steady insulin level (diabetic rats; treatment): 80 ± 3.5 uU/ml | Weight (diabetic rats; treatment): 228 ± 15 g | blood sugar (diabetic rats; treatment): 17.4 ± 5.6 mmol/L | weight and blood sugar compared with the non-treatment group (obese hyperglycemia mice; 9 weeks after administration): extremely significant difference | Blood glucose prior to administration (obese hyperglycemia mice; [6]): 29.2 ± 3.6 mmol/L | Body weight prior to administration (obese hyperglycemia mice; [6]): 29.2 ± 1.6 g | Blood glucose prior to administration (obese hyperglycemia mice; [7]): 28.7 ± 5.3 mmol/L | Body weight prior to administration (obese hyperglycemia mice; [7]): 28.8 ± 1.6 g | Blood glucose 6 w after administration (obese hyperglycemia mice; ig 90 mg/kg once a day): 31.4 ± 4.9 mmol/L | Blood glucose 9 w after administration (obese hyperglycemia mice; ig 90 mg/kg once a day): 33.7 ± 5.6 mmol/L | Blood glucose 12 w after administration (obese hyperglycemia mice; ig 90 mg/kg once a day): 30.4 ± 4.2 mmol/L | Body weight 6 w after administration (obese hyperglycemia mice; ig 90 mg/kg once a day): 35.7 ± 1.7 g | Body weight 9 w after administration (obese hyperglycemia mice; ig 90 mg/kg once a day): 39.3 ± 1.2 g | Body weight 12 w after administration (obese hyperglycemia mice; ig 90 mg/kg once a day): 41.3 ± 1.6 g | Blood glucose 6 w after administration (obese hyperglycemia mice; ig 180 mg/kg once a day): 30.9 ± 4.2 mmol/L | Blood glucose 9 w after administration (obese hyperglycemia mice; ig 180 mg/kg once a day): 30.2 ± 5.3 mmol/L | Blood glucose 12 w after administration (obese hyperglycemia mice; ig 180 mg/kg once a day): 28.1 ± 5.4 mmol/L | Body weight 6 w after administration (obese hyperglycemia mice; ig 180 mg/kg once a day): 34.9 ± 1.6 g | Body weight 9 w after administration (obese hyperglycemia mice; ig 180 mg/kg once a day): 38.2 ± 1.3 g | Body weight 12 w after administration (obese hyperglycemia mice; ig 180 mg/kg once a day): 40.1 ± 1.4 g | The body weight increased 7 weeks after high-sugar high-fat diet ([1]; Group C, after three weeks ig 90 mg/kg once daily): 16.8 ± 4.8 g | The body weight increased 4 weeks after high-sugar high-fat diet ([1]; Group C, before start of ig 90 mg/kg): 15.3 ± 3.8 g | The body weight increased 7 weeks after high-sugar high-fat diet ([1]; Group D, after three weeks ig 45 mg/kg once daily): 17.7 ± 4.6 g | The body weight increased 4 weeks after high-sugar high-fat diet ([1]; Group D, before start of ig 45 mg/kg): 16.1 ± 4.2 g

C[C@@H]1C[C@H]2[C@@H]3CCC4=CC(=O)C=C[C@]4(C)[C@@]3(F)[C@@H](O)C[C@]2(C)[C@@]1(O)C(=O)CO [dexamethasone]
Rating of adhesion degree 0 (rats; number of 12 rats with completely no adhesion): 1 | Rating of adhesion degree III (rats; number of 12 rats with more than two adhering zones): 1 | Rating of adhesion degree I (rats; number of 12 rats with one adhering zone): 2 | Rating of adhesion degree IV (rats; number of 12 rats with organs adhering to abdominal wall directly): 0 | Rating of adhesion degree II (rats; number of 12 rats with two adhering zones): 8

CN(CCOc1ccc(CC2SC(=O)NC2=O)cc1)c1ccccn1 (stereo not shown) [Rosiglitazone]
Blood glucose prior to administration (obese hyperglycemia mice; [8]): 29.3 ± 4.7 mmol/L | Body weight prior to administration (obese hyperglycemia mice; [8]): 29.3 ± 1.7 g | Blood glucose 6 w after administration (obese hyperglycemia mice; ig 4 mg/kg once a day): 31.1 ± 4.9 mmol/L | Blood glucose 9 w after administration (obese hyperglycemia mice; ig 4 mg/kg once a day): 30.5 ± 4.5 mmol/L | Blood glucose 12 w after administration (obese hyperglycemia mice; ig 4 mg/kg once a day): 27.9 ± 3.8 mmol/L | Body weight 6 w after administration (obese hyperglycemia mice; ig 4 mg/kg once a day): 42.1 ± 1.9 g | Body weight 9 w after administration (obese hyperglycemia mice; ig 4 mg/kg once a day): 48.2 ± 1.5 g | Body weight 12 w after administration (obese hyperglycemia mice; ig 4 mg/kg once a day): 50.1 ± 1.8 g

O=c1[nH]c2ccccc2n1CCCN1CCC(n2c(=O)[nH]c3cc(Cl)ccc32)CC1 [domperidone]
Propulsive rate (mice [2]): 55.42 ± 9.6 %

CNC[C@H](O)[C@@H](O)[C@H](O)[C@H](O)CO.O=C(O)c1cc(O)c2c(c1)C(=O)c1cccc(O)c1C2=O [rhein meglumine conjugate, Rhein Meglumine Conjugate]
PH value [3]: 6-7 | clarity [3]: clear

O=P1(N(CCCl)CCCl)NCCCO1 (stereo not shown) [cyclophosphamide]
Clearance index (k) (mice [4]): 0.0192 ± 0.0102 | Phagocytic index (α) (mice [4]): 4.0208 ± 0.6698

O=C([O-])c1cc(O)c2c(c1)C(=O)c1cccc(O)c1C2=O.[K+] [Rhein sylvin]
PH value [3]: 9-10 | clarity [3]: clear

C[N+](C)(C)CC(O)CC(=O)[O-].O=C(O)c1cc(O)c2c(c1)C(=O)c1cccc(O)c1C2=O [rhein carnitine conjugate, Rhein Carnitine Conjugate]
PH value [3]: 6-7 | clarity [3]: clear
